Measurements from patent publication US10980813B2, “Antifungal composition” (SEED RESEARCH INSTITUTE CO., LTD., priority 2017, dated 2021).
Converted amounts (≈) assume the structure as drawn.

Key:
Experiment in all cases: Antifungal activity, MIC by disc (diffusion) method
C. parapsilosis = type: cell-based, Candida parapsilosis; conditions: Lodderomyces parapsilosis, YMG agar, 24 hr at 28° C., read-out: MIC (minimum inhibitory concentration) C. parapsilosis
Procedure: (§1) Measurement Method of Antifungal Activity in Various Compounds
(§2) The minimum inhibitory concentration (MIC) was measured by a disc method (diffusion method). The disc method is one kind of the diffusion method, and is a method in which filter paper (disc) impregnated with an antifungal substance at a given concentration is placed on an agar medium (test plate) coated with a test bacterium and cultivated. The disc absorbs water in the medium, diffuses the antifungal substance and forms a given concentration gradient. As a result, the test bacterium forms a growth inhibition zone (circle) in the periphery of the disc, and the level of sensitivity to the antifungal substance is determined from the diameter of the inhibition circle.
(§3) Using the aforementioned method, MIC of various compounds was measured.
(§4) i: In a 100 mL flask, 20 mL of YMG or Mueller Hinton medium is produced.
(§5) ii: A loopful of the test bacterium is dissolved in the medium.
(§6) iii: The medium is cultured at 200 rpm for 24 hr in a rotary shaker set to 28° C.
(§7) i: In a 300 mL flask, 100 mL of YMG or Mueller Hinton agar medium (low melting point agar) is produced.
(§8) ii: After cooling to 37° C.-40° C., preculture medium (1 mL) is added and the mixture is agitated.
(§9) iii: The mixture is dispensed to a square petri dish (size: 100*150*17 mm) by 20 mL each.
(§10) iv: The dish is stood at room temperature until the agar is solidified.
(§11) i: The compound is diluted in ½ dilution series in 10 stages (timely changed according to compound), 50 μL of solution/pulp at each dilution stage is produced, the organic solvent is dried at room temperature and placed on a test plate.
(§12) ii: After culturing T. rubrum for 48 hr and other test bacteria for 24 hr at 28° C. in an incubator, the size of the inhibition circle was measured.
(§13) The medium composition for culture which was used for the aforementioned preculture is shown below.
(§14) [Medium Compositions for Preculture and Test Plate]
(§15) <<YMG Medium>>: For Fungus
(§16) Agar, powder 0.8% * added only when producing test plate

A. fumigatus = type: cell-based; conditions: Aspergillus fumigatus, YMG agar, 24 hr at 28° C., read-out: MIC (minimum inhibitory concentration) A. fumigatus
Procedure: as §1, §2, §3, §4, §5, §6, §7, §8, §9, §10, §11, §12, §13, §14, §15, §16

T. rubrum = type: cell-based; conditions: Trichophyton rubrum, YMG agar, 48 hr at 28° C., read-out: MIC (minimum inhibitory concentration) T. rubrum
Procedure: as §1, §2, §3, §4, §5, §6, §7, §8, §9, §10, §11, §12, §13, §14, §15, §16

T. mentagrophytes = type: cell-based; conditions: Trichophyton mentagrophytes, YMG agar, 24 hr at 28° C., read-out: MIC (minimum inhibitory concentration) T. mentagrophytes
Procedure: as §1, §2, §3, §4, §5, §6, §7, §8, §9, §10, §11, §12, §13, §14, §15, §16

Saccharomyces = type: cell-based; conditions: YMG agar, 24 hr at 28° C., read-out: MIC (minimum inhibitory concentration) Saccharomyces
Procedure: as §1, §2, §3, §4, §5, §6, §7, §8, §9, §10, §11, §12, §13, §14, §15, §16

Row | Compound | MIC (C. parapsilosis) [µg/mL] | MIC (A. fumigatus) [µg/mL] | MIC (T. rubrum) [µg/mL] | MIC (T. mentagrophytes) [µg/mL] | MIC (Saccharomyces) [µg/mL]
1 | O=S1(=O)N=CC2=COc3ccc(F)cc3C2=N1 [I-6b] | 4 (≈ 15.9 µM) | 4 (≈ 15.9 µM) | 1 (≈ 3.96 µM) | 1 (≈ 3.96 µM) | 4 (≈ 15.9 µM)
2 | CC1=NS(=O)(=O)N2OC12 (stereo not shown) [II-4a] | 8 (≈ 54 µM) | 8 (≈ 54 µM) | 2 (≈ 13.5 µM) | 2 (≈ 13.5 µM) | 8 (≈ 54 µM)
3 | O=[N+]([O-])c1ccc2c(c1)C1ON1S(=O)(=O)O2 (stereo not shown) [II-1e] | 4 (≈ 16.4 µM) | 4 (≈ 16.4 µM) | 1 (≈ 4.1 µM) | 1 (≈ 4.1 µM) | 4 (≈ 16.4 µM)
4 | O=S1(=O)Oc2ccc(Br)cc2C2ON21 (stereo not shown) [II-1c] | 4 (≈ 14.4 µM) | 4 (≈ 14.4 µM) | 1 (≈ 3.6 µM) | 1 (≈ 3.6 µM) | 4 (≈ 14.4 µM)
5 | CC1=NS(=O)(=O)N=C1 [I-4a] | 8 (≈ 60.5 µM) | 8 (≈ 60.5 µM) | 2 (≈ 15.1 µM) | 2 (≈ 15.1 µM) | 8 (≈ 60.5 µM)
6 | CC1=CC2(C)ON2S(=O)(=O)N1 (stereo not shown) [II-2b] | 16 (≈ 90.8 µM) | 16 (≈ 90.8 µM) | 2 (≈ 11.4 µM) | 2 (≈ 11.4 µM) | 16 (≈ 90.8 µM)
7 | CC1=C(C)C2(c3ccccc3)ON2S(=O)(=O)N1 (stereo not shown) [II-2d] | 8 (≈ 31.7 µM) | 8 (≈ 31.7 µM) | 2 (≈ 7.93 µM) | 2 (≈ 7.93 µM) | 8 (≈ 31.7 µM)
8 | COC(=O)c1ccc2c(c1)C=NS(=O)(=O)O2 [I-1f] | 4 (≈ 16.6 µM) | 4 (≈ 16.6 µM) | 1 (≈ 4.15 µM) | 1 (≈ 4.15 µM) | 4 (≈ 16.6 µM)
9 | N#Cc1ccc2c(c1)C=NS(=O)(=O)O2 [I-1g] | 4 (≈ 19.2 µM) | 4 (≈ 19.2 µM) | 1 (≈ 4.8 µM) | 1 (≈ 4.8 µM) | 4 (≈ 19.2 µM)
10 | O=S1(=O)N=Cc2cc(Cl)ccc2O1 [I-1b] | 4 (≈ 18.4 µM) | 4 (≈ 18.4 µM) | 1 (≈ 4.59 µM) | 1 (≈ 4.59 µM) | 4 (≈ 18.4 µM)
11 | CC1=NS(=O)(=O)OC1C (stereo not shown) [I-3a] | 4 (≈ 26.8 µM) | 4 (≈ 26.8 µM) | 2 (≈ 13.4 µM) | 2 (≈ 13.4 µM) | 4 (≈ 26.8 µM)
12 | COC(=O)c1ccc2c(c1)C1ON1S(=O)(=O)O2 (stereo not shown) [II-1f] | 4 (≈ 15.6 µM) | 4 (≈ 15.6 µM) | 1 (≈ 3.89 µM) | 1 (≈ 3.89 µM) | 4 (≈ 15.6 µM)
13 | O=S1(=O)N=Cc2cc(Br)ccc2O1 [I-1c] | 4 (≈ 15.3 µM) | 4 (≈ 15.3 µM) | 1 (≈ 3.82 µM) | 1 (≈ 3.82 µM) | 4 (≈ 15.3 µM)
14 | O=S1(=O)N=Cc2cc(Cl)cc(Cl)c2O1 [I-1h] | 4 (≈ 15.9 µM) | 4 (≈ 15.9 µM) | 1 (≈ 3.97 µM) | 1 (≈ 3.97 µM) | 4 (≈ 15.9 µM)
15 | CC1=NS(=O)(=O)N2OC12C (stereo not shown) [II-4b] | 16 (≈ 98.7 µM) | 16 (≈ 98.7 µM) | 4 (≈ 24.7 µM) | 4 (≈ 24.7 µM) | 16 (≈ 98.7 µM)
16 | O=S1(=O)N=CC2=COc3ccccc3C2=N1 [I-6a] | 4 (≈ 17.1 µM) | 4 (≈ 17.1 µM) | 1 (≈ 4.27 µM) | 1 (≈ 4.27 µM) | 4 (≈ 17.1 µM)
17 | O=S1(=O)Nc2ccc(Cl)cc2C2(c3ccccc3)ON21 (stereo not shown) [II-1l] | 8 (≈ 25.9 µM) | 8 (≈ 25.9 µM) | 2 (≈ 6.48 µM) | 2 (≈ 6.48 µM) | 8 (≈ 25.9 µM)
18 | N#Cc1ccc2c(c1)C1ON1S(=O)(=O)O2 (stereo not shown) [II-1g] | 4 (≈ 17.8 µM) | 4 (≈ 17.8 µM) | 1 (≈ 4.46 µM) | 1 (≈ 4.46 µM) | 4 (≈ 17.8 µM)
19 | O=S1(=O)N=C2C(=COc3ccccc32)C2ON21 (stereo not shown) [II-6a] | 4 (≈ 16 µM) | 4 (≈ 16 µM) | 1 (≈ 4 µM) | 1 (≈ 4 µM) | 4 (≈ 16 µM)
20 | O=S1(=O)N=Cc2nccn21 [I-5a] | 8 (≈ 50.9 µM) | 8 (≈ 50.9 µM) | 2 (≈ 12.7 µM) | 2 (≈ 12.7 µM) | 8 (≈ 50.9 µM)
21 | CC1=C(C)C2(C)ON2S(=O)(=O)O1 (stereo not shown) [II-2a] | 8 (≈ 41.8 µM) | 8 (≈ 41.8 µM) | 2 (≈ 10.5 µM) | 2 (≈ 10.5 µM) | 8 (≈ 41.8 µM)
22 | CC1=NS(=O)(=O)OC(C)=C1C [I-2a] | 8 (≈ 45.7 µM) | 8 (≈ 45.7 µM) | 2 (≈ 11.4 µM) | 2 (≈ 11.4 µM) | 8 (≈ 45.7 µM)
23 | O=S1(=O)Oc2ccc(Cl)cc2C2ON21 (stereo not shown) [II-1b] | 4 (≈ 17.1 µM) | 4 (≈ 17.1 µM) | 1 (≈ 4.28 µM) | 1 (≈ 4.28 µM) | 4 (≈ 17.1 µM)
